Values quoted from earlier work as cited in patent US10350179B2, “Combination comprising palmitoylethanolamide (PEA) and lycopene for use in the treatment of inflammatory diseases” (Raffaele MIGLIACCIO, priority 2015, dated 2019).

Conditions: dietary intake, background statement

Concentration in human plasma: 0.22 to 1.06 nmol/mL
SMILES: CC(C)=CCC/C(C)=C/C=C/C(C)=C/C=C/C(C)=C/C=C/C=C(C)/C=C/C=C(C)/C=C/C=C(\C)CCC=C(C)C [Lycopene]
